Measurements as given in PMC11997890, “In Vivo and In Vitro Pharmacokinetic Studies of a Dual Topoisomerase I/II Inhibitor” (ACS Pharmacology & Translational Science, 2025).
Several values for one entry are separate records, joined by “and”; a condition that tells them apart may be missing. Equal values may be shown once. Read-outs that look alike come from different tables or passages of the source.

Assays:
OvCar8 cells = test: 2D monolayer viability assay (ApoLive-Glo); type: cell-based; conditions: Homo sapiens, OVCAR-8; OvCar8 2D monolayer, 48 h
Procedure: The efficacy of metabolites can have a significant impact on the efficacy of the drug. […] The therapeutic effect of P8-D6 mono and P8-D6 N-oxide was investigated in vitro in human ovarian cancer 2D monolayers and 3D spheroids (Figures and ). 48 h of treatment of the ovarian cancer cell lines (OvCar8, A2780, Igrov-1) with P8-D6 mono and P8-D6 N-oxide was compared to P8-D6 and cisplatin (study preparation scheme supplied as Figure S5). Both metabolites decreased viability in ovarian cancer cells in a 2D monolayer (Figure A, supplied as Figure S3 A,C).
The human ovarian cancer cell lines OvCar8, Igrov-1, and A2780, purchased from ATCC, were maintained in RPMI1640 medium, including L-glutamine supplemented with 10% fetal bovine serum and 60 IU/mL penicillin–streptomycin. Cells were grown at 37 °C and 5% CO2 in a humidified incubator and subcultivated at a confluency of 70–80%. Cell line authenticity was checked by STR profiling as described previously, and mycoplasma contamination was routinely investigated using MycoAlert (Lonza).
For the measurements of viability and apoptosis, cells of approximately 8000/well were seeded in a Corning No. 3903 plate and treated with the corresponding drugs for 48 h. After treatment, apoptosis and cell viability assays were performed using an ApoLive-Glo Multiplex Assay Kit (Promega #G6410) according to the manufacturer’s instructions. Fluorescence and luminescence units were measured by using a microplate multimode reader (Spark, Tecan). Relative caspase activity was calculated as caspase activity divided by viability (normalized to control). […] All experiments were performed in biological triplicates. PBS was used as the negative control, and cisplatin and P8-D6 were used as the positive controls.

[1] = In vivo plasma pharmacokinetics after i.v. and p.o. administration of P8-D6; set-up: species or system Sprague–Dawley rats; conditions: for AUC(0-t): read-out: AUC0–10 h (converted)
Procedure: The plasma concentration–time profiles and pharmacokinetic parameters of P8-D6 after p.o. and i.v. administration are presented in Figure B and Table .
Compartment models were used to calculate the pharmacokinetic parameters and plasma curves.
Since a pure drug solution of P8-D6 was administered in this study, liberation (release from the dosage form) could be neglected; therefore, first-order kinetics were assumed. […] Based on our in vivo results and assumptions, P8-D6 is first homogeneously distributed in the central compartment after application before being transferred to the peripheral compartment. Elimination occurs via the central compartment. The substance transport into, out of, and between the different compartments is characterized by the macro rate constants.
Starting with the i.v. administration, a two-compartment pharmacokinetic model was chosen that considers the biexponential decay of a fast initial first-order distribution and a slow terminal first-order elimination phase (supplied as Figure S4A,C). By this method, a fictitious initial P8-D6 plasma concentration c 0/i.v. of 4.43 μM at the time of injection was calculated (A (3.27 μM) + B (1.16 μM)). This fictitious plasma concentration corresponds to ∼1% (3.95 μmol in 8.8 mL of the theoretical plasma concentration and matches the plasma protein binding of P8-D6 of about 99% (Figure A). Based on the dose and c 0, a central V c of 0.891 L was calculated. Since the macro rate constant for distribution is considerably greater (37-fold) than the one for elimination, the elimination is the rate-determining step according to first-order kinetics.
To cope with the overlapping curves of absorption and elimination after p.o. administration, compartmental models are used (supplied as Figure S4B,D). However, since only two to three data points exist (depending on the definitive start time of the elimination) during the elimination and distribution phase (120–600 min), no differentiation between these two phases can be described by our data (as shown by the residual method in Figure S4B). Therefore, a one-compartment model according to the Bateman function with both first-order invasion and elimination rates was assumed for the p.o. administration of P8-D6 (supplied as Figure S4D). […] A fictitious initial plasma concentration, c 0/p.o. = 2.21 μM, was calculated.
Effects of the diet were reduced by fasting the rats overnight prior to P8-D6 application. Blood samples were taken at 5, 15, 30, 60, 120, 180, 300, 360, and 600 min after i.v. application or 30, 60, 90, 120, 240, and 600 min after p.o. application. Immediately afterward, the plasma was collected by centrifugation at 2000 g for 10 min. The rats were housed in metabolic cages to collect the urine in specially attached containers. Urine and feces samples were collected every 2 h. The rats were euthanized by CO2 inhalation. The harvested organs (kidney, spleen, lung, liver, and colon) were weighed and submerged in liquid nitrogen. All collected samples were stored at −80 °C until analysis.
50 μL of plasma was mixed with 100 μL of an ice-cold mixture of acetonitrile/methanol (2:1) and stirred in the vortex for 5 min. The suspension was centrifuged at 15000 g for 10 min, and 50 μL of the supernatant was injected into the HPLC (chapter Chromatographic Conditions). Calibration/control samples were prepared the same way with plasma samples collected from equal Sprague–Dawley rats from nonpharmacological studies. For calibration, the matrix was spiked with a defined concentration of the analyte. Final concentrations ranged from 0 μM to 5 μM. Triple determinations were performed and prepared on each respective day. LoD: 0.02 μM, LoQ: 0.05 μM (plasma).
For data analysis and statistics, Microsoft Excel 2019 and GraphPad Prism (version 10.2, GraphPad Software Inc., San Diego, California), commercially available software, were used. All data are expressed either as mean ± SEM or ± SD. […]

[2] = system: NCI-60 human tumor cell lines; test: NCI-60 DTP Human Tumor Cell Lines Screening; type: cell-based; conditions: for GI50: Homo sapiens, NCI-60 panel
[3] = male, Sprague-Dawley, rat, plasma, iv, 10 mg/kg, after i.v. administration of P8-D6 10 mg/kg BW, read-out: c max/i.v. of metabolite in plasma
[4] = male, Sprague-Dawley, rat, plasma, po, 50 mg/kg, after p.o. administration of P8-D6 50 mg/kg BW, read-out: c max/p.o. of metabolite in plasma

## COc1cc(-c2cc3ccncc3c3nc(OCC[N+](C)(C)[O-])c4cnccc4c23)cc(OC)c1OC [P8-D6 N-oxide]
OvCar8 cells
  IC50: 1.98 µM
[1]; [3]
  Cmax: 228 nM
[1]; [4]
  Cmax: 54 nM

## CNCCOc1nc2c3cnccc3cc(-c3cc(OC)c(OC)c(OC)c3)c2c2ccncc12 [P8-D6 mono]
OvCar8 cells
  IC50: 0.31 µM
[2]
  GI50: 0.037 µM
[1]; [3]
  Cmax: 114 nM
[1]; [4]
  Cmax: 341 nM

## COc1cc(-c2cc3ccncc3c3nc(OCCN(C)C)c4cnccc4c23)cc(OC)c1OC [P8-D6, 6-(N,N-dimethyl-2-aminoethoxy)-11-(3,4,5-trimethoxyphenyl)-pyrido[3,4-c][1,9]-phenanthroline]
OvCar8 cells
  IC50: 0.27 µM
[2]
  GI50: 0.049 µM
[1]; i.v.
  CLi.v.: 6.34 mL/min
  apparent volume of distribution: 57.69 L/m^2
  fictitious plasma concentration as share of theoretical plasma concentration: ~1%
  macro rate constant for distribution greater than for elimination: 37 fold
[1]; i.v. 10 mg/kg BW, plasma, 10 mg/kg
  c min: 0.35 µM and 0.35 ± 0.05 µM
[1]; i.v., total body surface of 0.0357 m^2
  CL: 10.66 L/(h m^2)
[1]; i.v., two-compartment model
  Macro rate constant ß: 0.002 min^–1
  Macro rate constant α: 0.073 min^–1
  coefficient A: 3.27 µM
  coefficient B: 1.16 µM
[1]; male, Sprague-Dawley, rat, plasma, iv, 10 mg/kg body weight
  clearance: 6.33 mL/min
[1]; male, Sprague-Dawley, rat, plasma, iv, 10 mg/kg body weight, i.v., read-out: Initial t 1/2
  half-life: 0.158 h
[1]; male, Sprague-Dawley, rat, plasma, iv, 10 mg/kg body weight, i.v., read-out: Terminal t 1/2
  half-life: 5.78 h
[1]; male, Sprague-Dawley, rat, plasma, iv, 10 mg/kg body weight, i.v., read-out: V d
  Vd: 2.06 L and 9.36 L/kg
[1]; male, Sprague-Dawley, rat, plasma, iv, 10 mg/kg body weight, i.v., read-out: V ss
  Vd: 2.95 L and 13.4 L/kg
[1]; male, Sprague-Dawley, rat, plasma, iv, 10 mg/kg body weight, i.v., read-out: plasma half-life t 1/2 (converted)
  half-life: 5.8 h
[1]; male, Sprague-Dawley, rat, plasma, iv, 10 mg/kg body weight, i.v., at the time of injection, two-compartment model, read-out: fictitious initial plasma concentration c 0/i.v.
  C0: 4430 nM
[1]; male, Sprague-Dawley, rat, plasma, iv, 10 mg/kg, i.v. 10 mg/kg BW, plasma, read-out: c max
  Cmax: 3950 ± 420 nM
[1]; male, Sprague-Dawley, rat, plasma, iv, 10 mg/kg, i.v. 10 mg/kg BW, read-out: t max
  Tmax: 0 h
[1]; male, Sprague-Dawley, rat, plasma, iv, i.v. 10 mg/kg BW
  AUC(0-t): 7.49 µM·h
[1]; male, Sprague-Dawley, rat, plasma, iv, i.v. 10 mg/kg BW, read-out: Bioavailability
  bioavailability: 100%
[1]; male, Sprague-Dawley, rat, plasma, oral, 50 mg/kg body weight, p.o. 50 mg/kg BW vs i.v. 10 mg/kg BW, read-out: Oral bioavailability
  bioavailability: 21.5%
[1]; male, Sprague-Dawley, rat, plasma, po, 50 mg/kg body weight, p.o., read-out: Terminal t 1/2
  half-life: 8.64 h
[1]; male, Sprague-Dawley, rat, plasma, po, 50 mg/kg body weight, p.o., read-out: plasma half-life t 1/2 (converted)
  half-life: 8.6 h
[1]; male, Sprague-Dawley, rat, plasma, po, 50 mg/kg body weight, p.o., one-compartment model, read-out: Macro rate constant k e
  k el: 2.17e-05 s⁻¹
[1]; male, Sprague-Dawley, rat, plasma, po, 50 mg/kg body weight, p.o., one-compartment model, read-out: fictitious initial plasma concentration c 0/p.o.
  C0: 2210 nM
[1]; male, Sprague-Dawley, rat, plasma, po, 50 mg/kg, p.o. 50 mg/kg BW, compartment model, read-out: c max (calculated)
  Cmax: 1250 nM
[1]; male, Sprague-Dawley, rat, plasma, po, 50 mg/kg, p.o. 50 mg/kg BW, compartment model, read-out: t max (calculated) (converted)
  Tmax: 1.77 h
[1]; male, Sprague-Dawley, rat, plasma, po, 50 mg/kg, p.o. 50 mg/kg BW, plasma, read-out: c max (measured)
  Cmax: 1160 nM
[1]; male, Sprague-Dawley, rat, plasma, po, 50 mg/kg, p.o. 50 mg/kg BW, read-out: t max (measured) (converted)
  Tmax: 2 h
[1]; male, Sprague-Dawley, rat, plasma, po, p.o. 50 mg/kg BW
  AUC(0-t): 8.03 µM·h
[1]; p.o.
  CL: 0.24 L/h
  CLp.o.: 3.96 mL/min
  apparent volume of distribution: 82.92 L/m^2
[1]; p.o. 50 mg/kg BW, plasma, 50 mg/kg
  c min: 0.59 µM and 0.59 ± 0.06 µM
[1]; p.o., one-compartment model
  Macro rate constant k a: 0.031 min^–1
[1]; p.o., total body surface of 0.0357 m^2
  CL: 6.65 L/(h m^2)
[1]; total body surface of 0.0357 m^2
  V ss: 82.69 L/m^2

## COc1cc(-c2cc3ccncc3c3[nH]c(=O)c4cnccc4c23)cc(OC)c1OC [P8-DO]
[2]; NCI 60 Cell Screening
  efficacy against cancer: ineffective against cancer
[1]; after administration of P8-D6
  detection in plasma: no P8-DO was detected
